Where a name gives a salt, the structure may show the parent alone. Read-outs that look alike come from different tables or passages of the source.

In one experiment the target is T1, porcine pancreatic PLA₂ (Sus scrofa, UniProt P00592).
T1 construct: porcine pancreatic PLA₂ (3.2 units); from tissue; host or cells: porcine pancreas
Description: In Vitro Phospholipase A₂ Assay (PLA₂). The format is biochemical. As for the experimental part: The ability of a compound to modulate PLA₂ activity (cleavage of ¹⁴C-dipalmitoyl phosphotidylcholine at the 2-position to ¹⁴C-palmitic acid) was quantitated in this assay. The reaction mixture contained Tris buffer (25mM), pH 8.0, calcium chloride (2.0 mM), bovine serum albumin (0.5 mg), dipalmitoyl phosphotidylcholine (8x10⁻⁵M), (¹⁴C-palmitoyl)dipalmitoyl phosphotidylcholine (6x10³ cpm), porcine pancreatic PLA₂ (3.2 units) and the test compound. The reaction was run at 37°C in a shaking incubator. The reaction was quenched and an internal standard was added in order to determine sample recovery. […] See Feyen, J.H.M., et al., Journal of Chromatography 259 (1983), pp. 338-340.

For experiment [1], the system named is ear edema induced by topical application of TPA (phorbol 12-myristate acetate). Description: TPA-Induced Ear Edema (TPAEE). The format is in vivo, Female Swiss Webster mice. To be noted: for TPAEE (10 µg): 10 µg/ear topical, TPA 10µg/ear, ear punch weight after five hours. As for the experimental part:
The purpose of this assay was to determine the ability of a topically-applied compound to prevent ear edema induced by topical application of TPA (phorbol 12-myristate acetate). Female Swiss Webster mice topically received TPA (10µg/ear) on the right ear and vehicle on the left ear. The test compound (10 µg/ear) was applied to both ears. After five hours, the animals were sacrificed and an ear punch (4 mm) was taken from each ear. The difference in right and left ear punch weights for each animal was determined to assess activity (Standard: hydrocortisone ED₅₀=47 µg/ear). See Young, J.M. et al., J. Invest. Dermatol., 80 (1983), pp. 48-52.

Experiment [2] relates to Scopolamine Induced Memory Deficit. Nature of the experiment: Dark Avoidance Assay (reversal of scopolamine-induced memory deficit). To be noted: for responders at 0.16 mg/kg: Dose 0.16 mg/kg of body weight; for responders at 0.3 mg/kg: Dose 0.30 mg/kg of body weight. The format is in vivo, mice. As for the experimental part:
In this assay mice are tested for their ability to remember an unpleasant stimulus for a period of 24 hours. A mouse is placed in a chamber that contains a dark compartment: a strong incandescent light drives it to the dark compartment, where an electric shock is administered through metal plates on the floor. The animal is removed from the testing apparatus and tested again, 24 hours later, for the ability to remember the electric shock. If scopolamine, an anticholinergic that is known to cause memory impairment, is administered before an animal's initial exposure to the test chamber, the animal re-enters the dark compartment shortly after being placed in the test chamber 24 hours later. This effect of scopolamine is blocked by an active test compound, resulting in a greater interval before re-entry into the dark compartment. The results for an active compound are expressed as the percent of a group of animals in which the effect of scopolamine is blocked, as manifested by an increased interval between being placed in the test chamber and re-entering the dark compartment.

The subject of experiment [3] is 2-phenyl-1,4-benzoquinone-induced writhing. Description: Inhibition of Phenylquinone-Induced Writhing in Mice (PQW). The format is in vivo, male CD-1 Charles River mice. A general note: In writhing tests, fewer writhes than in controls are read as antinociception.
Description: A 0.125% concentration of phenyl-p-benzoquinone in a 5% aqueous solution of ethyl alcohol is administered to mice (10 mL/kg, ip). This produces a characteristic "writhe" which is defined as an inward rotation of one or more feet with twisting and turning of the trunk, drawing in of the abdominal wall, lordosis, and arching of the back. A total of 28 male CD-1 Charles River mice (18-30 g) are employed for a time-response. Animals receive food and water ad libitum during their stay in the animal quarters prior to testing. Compounds are tested at 20 mg/kg, sc and are prepared with distilled water, and if insoluble one drop of Tween-80, a surfactant is added. Compounds are administered in a dosage volume of 10 mL/kg.
Twenty mice (five per group) are administered the test compound at various pretreat time (e.g., 15,30,45, and 60 min) prior to phenylquinone injection. Control animals (two per group) receive an equal volume of vehicle. After the administration of phenylquinone, the mice are placed separately into 1-L beakers, and 5 min are allowed to elapse. The mice are then observed for a period of 10 min, and the number of writhes is recorded for each animal. The formula for computing percent inhibition is [drawing 20]
The time period with the maximum percent of inhibition is considered the peak time.
Experiment [4] concerns naja naja (snake venom) phospholipase A₂-induced paw edema. Nature of the experiment: Phospholipase A₂-induced Paw Edema (PIPE). Format: in vivo, male Wistar rats. To be noted: for PIPE* (0.1 M): difference in edema vs. control, 0.1 M test compound injected with PLA₂ (3 units/paw), subplantar, rat hindpaw, two hours post administration. As for the experimental part:
The ability of compounds to prevent naja naja (snake venom) phospholipase A₂-induced paw edema in male Wistar rats (100-125 g) was measured. PLA₂ (3 units/paw) alone or with 0.1 M of the test compound was injected in the subplantar region of the rat left hindpaw. Immediately subsequent to the injection and at two hours post administration the paw was immersed in a mercury bath, and paw displacement was measured on a recorder via a transducer (Standard: hydrocortisone ED₅₀=0.46 M). See Giessler, A.J. et al., Agents and Actions, Vol. 10, Trends in Inflammation Research (1981), p. 195.

Experiment [5] deals with mouse ear edema induced by topical application of arachidonic acid. Description: Arachidonic Acid-Induced Ear Edema (AAEE). Format: in vivo, Female Swiss Webster mice. As for the experimental part: The purpose of this assay was to determine the ability of a topically-applied compound to prevent mouse ear edema induced by topical application of arachidonic acid. Female Swiss Webster mice topically received vehicle or test compound (1.0 mg/ear) on both ears (10µl on outer and inner ears). After 30 minutes, the right ear of all groups received arachidonic acid (4 mg/ear) and the left ear received vehicle alone. After an additional 1 hour, the mice were sacrificed and an ear punch (4 mm) was taken from each ear. The difference in right and left ear punch weights for each animal was determined to assess activity (Standard: indomethacin ED₅₀ = 1.5 mg/ear). See Young, J.M. et al., J. Invest. Dermatol., 80, (1983), pp 48-52.

Setting [6] is: 0.01 M test compound, porcine pancreatic PLA₂, 37°C, pH 8.0, change vs. control, read-out: PLA2* (0.01 M).
[7] abbreviates: Mus musculus, sc, 24 h, s.c, read-out: % of Animals with Scopolamine Induced Memory Deficit Reversal.

T1 sequence (P00592 23-146): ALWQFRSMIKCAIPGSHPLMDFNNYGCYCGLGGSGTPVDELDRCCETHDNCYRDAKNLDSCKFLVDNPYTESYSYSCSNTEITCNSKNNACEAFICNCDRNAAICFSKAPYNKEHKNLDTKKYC

Turning to `Cl.Nc1ccncc1C(=O)C1CCCCC1` [(4-Amino-3-pyridinyl)cyclohexylmethanone hydrochloride], the inhibition at 10000 µM on porcine pancreatic PLA₂ (pH 8, read-out: PLA2* (0.01 M)) is 82%. Besides, the “TPAEE (10 µg)” value in experiment [1] is -53%.

As for `CC(O)c1cnccc1N` (stereo not drawn) [α-Methyl-4-amino-3-pyridinylmethanol hydrochloride], in experiment [2] (Mus musculus, sc, 24 h, Dose 1.25 mg/kg of body weight, s.c, read-out: % of Animals with Scopolamine Induced Memory Deficit Reversal), the responders at 1.25 mg/kg came to 33%.

Consider `Nc1ccncc1C(=NO)c1ccccc1F` [(4-Amino-3-pyridinyl)-(2-fluorophenyl)-methanone oxime], for which the inhibition at 10000 µM on porcine pancreatic PLA₂ (setting [6]) is 32%. The “TPAEE (10 µg)” value in experiment [1] is listed as -56%.

As to `CCC(=O)O[C@](Cc1ccccc1)(c1ccccc1)[C@H](C)CN(C)C` [Propoxyphene, reference compound], the “PQW (% inhibition of writhing)” value in experiment [3] (Dose 3.9 mg/kg, s.c. (reference compound)) was found to be 50%.

As for `Nc1ccncc1C(O)c1ccccc1` (stereo not drawn) [α.Phenyl-4-amino-3-pyridinylmethanol hydrochloride], the inhibition at 10000 µM on porcine pancreatic PLA₂ (setting [6]) was 87%. For the same compound, in experiment [2] (Mus musculus, sc, 24 h, Dose 0.63 mg/kg of body weight, s.c, read-out: % of Animals with Scopolamine Induced Memory Deficit Reversal), the responders at 0.63 mg/kg is 27%.

With `CC(O)c1cnccc1NC(=O)C(C)(C)C` (stereo not drawn) [α-Methyl-4-(2,2-dimethylpropionamido)-3-pyridinylmethanol], in experiment [3] (Dose 20 mg/kg, s.c.), the “PQW (% inhibition of writhing)” value is 89%.

Consider `Cl.Cl.Nc1ccncc1CNCc1ccccc1` [3-[(Phenylmethylamino)methyl]-4-pyridinamine dihydrochloride], for which, in experiment [4], the “PIPE* (0.1 M)” value was -51%. At porcine pancreatic PLA₂ (pH 8, read-out: PLA2* (0.01 M)), the inhibition at 10000 µM is 79%. Moreover, the “PQW (% inhibition of writhing)” value in experiment [3] (Dose 20 mg/kg, s.c.) worked out at 40%.

`CNC(=O)Oc1ccc2c(c1)[C@]1(C)CCN(C)[C@@H]1N2C` [Physostigmine, reference compound]: in experiment [2] (mouse, in vivo, 0.31 mg/kg), the “% of Animals with Scopolamine Induced Memory Deficit Reversal” value was determined as 20%.

`Nc1ccncc1C(=NO)C1CCCCC1` [(4-Amino-3-pyridinyl)cyclohexylmethanone oxime hydrochloride]: on porcine pancreatic PLA₂ (pH 8, read-out: PLA2* (0.01 M)), the inhibition at 10000 µM turned out to be 99%.

`CC(C)(C)C(=O)Nc1ccncc1C(O)c1ccccc1` (stereo not drawn) [α.Phenyl-4-(2,2-dimethylpropionamido)-3-pyridinylmethanol]: the responders at 0.31 mg/kg in experiment [2] (Mus musculus, sc, 24 h, Dose 0.31 mg/kg of body weight, s.c, read-out: % of Animals with Scopolamine Induced Memory Deficit Reversal) was found to be 40%. Also, in experiment [3] (Dose 20 mg/kg, s.c.), the “PQW (% inhibition of writhing)” value turned out to be 38%.

Take `CC(C)(C)C(=O)Nc1ccncc1C(O)C1CCCCC1` (stereo not drawn) [α-Cyclohexyl-4-(2,2-dimethylpropionamido)-3-pyridinylmethanol]: in experiment [5] (1.0 mg/ear topical, 30 minutes before arachidonic acid (4 mg/ear), ear punch weight after 1 hour), the “AAEE (1 mg)” value is listed as -52%. In addition, the “TPAEE (10 µg)” value in experiment [1] is -55%. Further, the responders at 0.16 mg/kg in experiment [2] (setting [7]) was 33%.

As for `CC(NCc1ccccc1)c1cnccc1N` (stereo not drawn) [4-Amino-α-methyl-N-(phenylmethyl)-3-pyridinemethanamine], the “PIPE* (0.1 M)” value in experiment [4] was -44%.

Regarding `COc1ccc2c(c1)c(CC(=O)O)c(C)n2C(=O)c1ccc(Cl)cc1` [indomethacin, reference compound], the ED₅₀ in experiment [5] (standard of the AAEE assay, topical) is 1.5 mg/ear.

Turning to `CCCCNCc1cnccc1N.Cl.Cl` [3-(Butylamino)methyl-4-pyridinamine dihydrochloride], the responders at 0.3 mg/kg in experiment [2] (setting [7]) was 27%. Further, the “PQW (% inhibition of writhing)” value in experiment [3] (Dose 20 mg/kg, s.c.) is 62%.

As for `CC(NCc1ccccc1)c1cnccc1NC(=O)C(C)(C)C` (stereo not drawn) [N-[3-[1-(Phenylmethylamino)ethyl]-4-pyridinyl]-2,2-dimethylpropanamide dihydrochloride], the inhibition at 10000 µM on porcine pancreatic PLA₂ (pH 8, read-out: PLA2* (0.01 M)) is 74%.

For the compound `Nc1ccncc1C(O)C1CCCCC1` (stereo not drawn) [α-Cyclohexyl-4-amino-3-pyridinylmethanol hydrochloride], the responders at 0.16 mg/kg in experiment [2] (setting [7]) turned out to be 50%.

Turning to `Nc1ccncc1C(N)c1ccccc1` (stereo not drawn) [(4-Amino-3-pyridinyl)benzenemethanamine dihydrochloride], the “PIPE* (0.1 M)” value in experiment [4] is recorded as -66%. For the same compound, in experiment [2] (setting [7]), the responders at 0.3 mg/kg was 27%.

For `Nc1ccncc1C(O)c1ccccc1F` (stereo not drawn) [α-(2-Fluorophenyl)-4-amino-3-pyridinylmethanol hydrochloride], in experiment [4], the “PIPE* (0.1 M)” value is -56%. Further, the responders at 1 mg/kg in experiment [2] (Mus musculus, sc, 24 h, Dose 1.0 mg/kg of body weight, s.c, read-out: % of Animals with Scopolamine Induced Memory Deficit Reversal) stood at 40%.

As for `Cl.Cl.Nc1ccncc1C(N)C1CCCCC1` (stereo not drawn) [(4-Amino-3-pyridinyl)cyclohexylmethanamine dihydrochloride], the “PIPE* (0.1 M)” value in experiment [4] is -68%. Besides, on porcine pancreatic PLA₂ (pH 8, read-out: PLA2* (0.01 M)), the inhibition at 10000 µM amounted to 72%.

On to `C[C@]12CCC(=O)C=C1CC[C@@H]1[C@@H]2[C@@H](O)C[C@@]2(C)[C@H]1CC[C@]2(O)C(=O)CO` [hydrocortisone, reference compound], for which the ED₅₀ is on record as 0.46 M in experiment [4] (standard of the PIPE assay) and 47 µg/ear in experiment [1] (standard of the TPAEE assay, topical).

The values are drawn from patent EP0435222A2, “Aminopyridinylmethanols and aminomethylpyridinamines and related compounds, a process for their preparation and their use as medicaments” (HOECHST-ROUSSEL PHARMACEUTICALS INCORPORATED, priority 1989, dated 1991).
